# Experimental data reported in patent US9708628B2, “Cationic lipid having improved intracellular kinetics” (NOF CORPORATION, priority 2011, dated 2017).
# Tests used:
# [1] = Particle size and surface potential of siRNA MENDs prepared by t-BuOH injecting method; type: physicochemical; conditions: siRNA MEND, cationic lipid/cholesterol=70/30, DMG-PEG2000 3%
# Protocol: (§1) A lipid solution in t-BuOH with a composition of cationic lipid/cholesterol=70/30, DMG-PEG2000 3% and a total lipid amount of 3000 nmol/400 μL (7.5 mM) was prepared in a 1.7 mL tube. In a separate 1.7 mL tube, an siRNA solution was prepared by mixing an siRNA aqueous solution containing siRNA (160 μg) and 20 mM malate buffer (pH 4.00, 30 mM NaCl) to total 50 μL. With vigorous stirring of the lipid solution, the siRNA solution was gradually added dropwise, and the mixed solution was taken in a 1 mL syringe. Then, 20 mM malate buffer (pH 4.00, 30 mM NaCl, 2 mL) was added into a 5 mL tube, and the mixed solution was gradually injected with vigorous stirring. Thereafter, the mixture was further diluted with PBS (7 mL) and centrifuged at 1000 g, 30° C. for 10 min in Amicon Ultra-15-100K to a volume of less than 1.5 mL. PBS (15 mL) was added, and the solution was centrifuged again to about 500-1000 μL. Finally, the MEND solution was adjusted by diluting with PBS to the object lipid concentration.
# The particle size and surface potential of various MENDs were measured according to the method described in [Experimental Example 2] and the results are shown in Table 6.
# [2] = test system: Factor VII (FVII); experiment: Knockdown effect of siRNA-encapsulated MEND prepared by t-BuOH injecting method; type: in vivo, ICR mice; conditions: varying doses of siRNA, tail vein
# Protocol: A MEND solution prepared by the method shown in [Experimental Example 28] was administered to 4-week-old male ICR mice at 3 mg siRNA/kg from the tail vein, and blood was collected 24 hr later. This blood sample was centrifuged at 1000 g, 10 min, 4° C., and the supernatant was recovered to obtain plasma. The amount of Factor VII (FVII) in the plasma was quantified by BIOPHEN FVII CHROMOGENIC ASSAY (HYPHEN BioMed).
# as §1
# MENDs prepared by the method shown in Experimental Example 32 were administered by a method similar to the method shown in Experimental Example 30 with varying doses of siRNA, and the knockdown effect was evaluated. The results are shown in FIG. 35, FIG. 36, and FIG. 37.
# [3] = test system: Factor VII (FVII); experiment: Knockdown effect of chemically-modified siRNA-encapsulated MEND; type: in vivo, ICR mice
# Protocol: A MEND (Lipid/siRNA ratio=250) prepared using the compound of Example 13 and by the method shown in Experimental Example 32, and a MEND having the ratio of lipid and siRNA of Lipid/siRNA ratio=2250 were prepared. Furthermore, of Lipid/siRNA ratio=2250, MENDs wherein siRNA was replaced by chemically-modified one (2′-F) were prepared, and the knockdown effect was evaluated by the method shown in Experimental Example 33.
compound,measurement,setting,value
Cc1c(C)c2c(c(C)c1OC(=O)CCC(=O)OCCCCC1CCN(CCSSCCN3CCC(CCCCOC(=O)CCC(=O)Oc4c(C)c(C)c5c(c4C)CCC(C)(CCCC(C)CCCC(C)CCCC(C)C)O5)CC3)CC1)CCC(C)(CCCC(C)CCCC(C)CCCC(C)C)O2 (stereo not drawn) [TS-P4C4],PDI,[1],0.11
same,size (nm),[1],123 nm
same,zeta (mV),[1],−6.9 mV
same,FVII expression level (knockdown effect),[2],highest knockdown effect
same,knockdown effect with chemically-modified siRNA (2′-F),[3]; Lipid/siRNA ratio=2250,further enhanced the knockdown effect
same,"knockdown effect, Lipid/siRNA ratio 2250 versus 250",[3]; unmodified siRNA,knockdown effect was enhanced
